Data published in paper PMC9785397, “Exploiting Conserved Quorum Sensing Signals in Streptococcus mutans and Streptococcus pneumoniae” (Microorganisms, 2022).
In brackets after ≈: the same amount, converted by molar mass.

Experiments:
[1] = test system: S. mutans biofilm formation; assay: Biofilm formation (crystal violet); type: cell-based, Streptococcus mutans; conditions: peptide 20 μM, 72 h, p < 0.05
Procedure: Overnight cultures of S. mutans were diluted 1:1000 in a 1:10 solution of BHI broth supplemented with 0.2% w/v sucrose and artificial saliva (AS; 1.3 g/L KCl, 0.1 g/L NaCl, 0.05 g/L MgCl, 0.1 g/L CaCl2, 0.5 g/L peptone, 25 μg/L NaF, 27 mg/L KH2PO4, 35 mg/L K2HPO4, pH 6.8; all reagents purchased from Merck). Cultures were seeded into 96-well polystyrene microtiter plates (200 µL/well) and incubated at 37 °C under static conditions. To identify the time of incubation that is useful in obtaining a mature biofilm, plates were incubated for 16, 24, 48, 72, or 96 h. Half of the media was renewed every 24 h. At the end of incubations, the wells were emptied and washed three times with sterile PBS to remove planktonic cells. Adhering cells were incubated with resazurin 0.01% in the dark at 37 °C for 20 min [30]. In metabolically active cells, the non-fluorescent resazurin was reduced to highly fluorescent resorufin by dehydrogenase enzymes. The relative fluorescence units (RFU) of resorufin were measured using a fluorimeter (Ex = 530–570 nm, Em = 590–620 nm; Varioskan Lux Reader; Thermo Fisher Scientific).
To assess the effect of the compounds on biofilm formation or mature biofilm, cultures of S. mutans were prepared as described above. […] The optical density was measured at 570 nm using a microplate reader (Varioskan Lux Reader; Thermo Fisher Scientific). […]

F. nucleatum = assay: microbe, parasite or virus in culture; type: cell-based, Fusobacterium nucleatum; conditions: peptides 0–50 μM, 16 h, 37 °C, anaerobic, A620 nm, three separate experiments
Source text: (§1) Streptococcus mutans Clarke (strain designation NCTC 10449), Pseudomonas aeruginosa (Schroeter) Migula (strain designation PAO1), Fusobacterium nucleatum, subspecies nucleatum (strain VPI 4355), and Porphyromonas gingivalis (strain 2561) were purchased from ATCC (LGC Standards Srl, Milan, Italy). Streptococcus mitis, Streptococcus oralis, and Streptococcus sanguinis were obtained from clinical isolates and characterized by morphological, biochemical, and molecular typing. S. mutans, S. mitis, S. oralis, and S. sanguinis were maintained in Brain Heart Infusion (BHI) broth or agar under microaerophilic conditions. P. aeruginosa was maintained in trypticase soy (TS) agar or broth. F. nucleatum was maintained in TS agar or broth with defibrinated sheep blood under anaerobic conditions. P. gingivalis was maintained in ATCC Medium 2722 supplemented with TS broth or agar under anaerobic conditions. Before the experiments, bacterial cultures were inoculated in fresh media (dilution 1:100) and grown for 16 h at 37 °C.
(§2) The antimicrobial activities of the tested peptides were assessed through the determination of the minimum inhibitory concentration (MIC) standardized by the Clinical and Laboratory Standards Institute. Bacterial inocula were diluted in 10 mL of MHB […]. The concentration of the bacteria was adjusted to 0.5 McFarland standard, and the bacteria were dispensed in 96-well microtiter plates (final bacterial concentration: 1 × 10^4 CFU/well). Peptides were dissolved in sterile water (stock concentration: 2 mM) and added at final concentrations ranging from 0 to 50 µM. Plates were incubated at 37 °C for 16 h. At the end of incubation, bacterial growth was recorded using a microplate reader (Varioskan Lux Reader; Thermo Fisher Scientific, Milan, Italy) by quantifying the adsorption at 620 nm. Cultures were then opportunely diluted and seeded on agar plates. Bacterial cultures inoculated with the highest final concentration of the vehicle (sterile water) or chlorhexidine hydrochloride salt (CHX, concentration range: 0.05 to 500 μg/mL; Merck, Milan, Italy) were included as controls in each test. Experiments were performed in triplicate.

S. mitis = assay: microbe, parasite or virus in culture; type: cell-based, Streptococcus mitis; conditions: peptides 0–50 μM, 16 h, 37 °C, microaerophilic, A620 nm, three separate experiments
Source text: as §1, §2

S. mutans = assay: Bacterial growth kinetics; type: cell-based, Streptococcus mutans
Procedure: Peptides were further evaluated for their potential effect in altering the growth kinetics in S. mutans. Overnight bacterial cultures were collected, centrifuged, and suspended in fresh BHI broth at 10^8 CFU/mL. Bacteria were dispensed in sterile 96-well microtiter plates at a final concentration of 1 × 10^6 CFU/100 µL and cultured with peptides or the vehicle at 37 °C for 36 h. Bacterial growth kinetics were monitored by measuring the optical density at 620 nm at different time points using Varioskan Lux Reader (Thermo Fisher Scientific).

P. aeruginosa = assay: microbe, parasite or virus in culture; type: cell-based, Pseudomonas aeruginosa; conditions: peptides 0–50 μM, 16 h, 37 °C, aerobic, A620 nm, three separate experiments
Source text: as §1, §2

[2] = test system: S. mutans bacteriocin production against P. gingivalis; assay: Bacteriocin overlay assay, S. mutans spotted on P. gingivalis; type: cell-based, Streptococcus mutans; conditions: CSP1 20 μM, 16 h, anaerobic
Procedure: During the formation of complex biofilm such as dental plaque, the ability of S. mutans to compete with other commensal species determines the success of the cariogenesis process. S. mutans uses antibacterial peptides, namely, bacteriocins, to overcome and subvert the composition of dental microbiota. We investigated the production of bacteriocins using the overlay assay. Overnight cultures of S. mitis, S. oralis, S. sanguinis, P. aeruginosa, F. nucleatum, or P. gingivalis were diluted 1:100 in BHI or TS broth and incubated at 37 °C until they reached an OD620 of 0.3. Cultures were added with agar (BD Difco^TM Agar) at the final concentration of 1.5% w/v and transferred in plates. Overnight cultures of S. mutans were diluted 1:100 in BHI and added with peptides (20 μM) or the vehicle with or without CSP1. Culture media were supplemented with agar to reach the final concentration of 0.7% w/v. The solutions were spotted on the surface of agar plates prepared as described above. […]
Spots (10 for each experimental group) were acquired and analyzed using NIH Image J software (version 1.53t August 2022, https://imagej.nih.gov/ij/index.html; accessed on 7 September 2022). The appearance of a clear area on the plate (bacterial growth inhibition) was evaluated as indicative of bacteriocin activity. The diameters of the area were measured in a blinded fashion.

CC[C@H](C)[C@H](NC(=O)[C@H](Cc1ccccc1)NC(=O)[C@H](CC(=O)O)NC(=O)[C@H](CCCNC(=N)N)NC(=O)[C@H](Cc1ccccc1)NC(=O)[C@H](Cc1ccccc1)NC(=O)[C@H](CCCCN)NC(=O)[C@H](CO)NC(=O)[C@H](CC(C)C)NC(=O)[C@H](CCCNC(=N)N)NC(=O)[C@H](CCSC)NC(=O)[C@@H](N)CCC(=O)O)C(=O)N[C@@H](CC(C)C)C(=O)N[C@@H](CCC(N)=O)C(=O)N[C@@H](CCCNC(=N)N)C(=O)N[C@@H](CCCCN)C(=O)N[C@@H](CCCCN)C(=O)O [CSP1]
Effect on biofilm production vs. vehicle [1]: significantly increased | Minimum inhibitory concentration (MIC), F. nucleatum (F. nucleatum): >50 µM | Minimum inhibitory concentration (MIC), S. mitis (S. mitis): 25 µM (≈ 56.1 µg/mL) | Effect on the growth (growth kinetics) of S. mutans (S. mutans; 20 µM peptide, BHI broth, 37 °C, monitored 36 h, A620 nm, three experiments): no significant effects | Colony counting of S. mutans after incubation with the peptide (S. mutans; 20 µM, data not shown): not affected | Minimum inhibitory concentration (MIC), P. aeruginosa (P. aeruginosa): >50 µM | Growth inhibition of P. gingivalis by S. mutans stimulated with peptide [2]: no effects
